Reference: PubChem BioAssay AID588567 (Sanford-Burnham Center for Chemical Genomics, 2011)
Activity calls are given as the source filed them.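 The calls were made as follows: active = mean IC50 at or below 20 µM; inactive = the rest.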

These compounds were tested on CHO-CHOP cells viability, ATPlite luminescence, 24 h (assay: CHO-CHOP cell viability loss – 24 h exposure, ATPlite luminescence, cytotoxicity control for UPR adaptive arm activator project, SAR follow-up (AID 588567)).
In the case of `O=C(Nc1ccc(Br)c(C(F)(F)F)c1)c1cc(-c2ccncc2)nc2ccccc12`, the IC50 is reported as 50.1 µM (inactive). For `O=C(Nc1ccc(C(F)(F)F)cc1)c1cc(-c2ccncc2)nc2ccccc12`, the IC50 was 61.3 µM (inactive). In the case of `Cc1ccc(NC(=O)c2cc(-c3ccncc3)nc3ccccc23)cc1`, the IC50 is reported as > 80 µM (inactive). In the case of `O=C(Nc1ccc(F)cc1)c1cc(-c2ccncc2)nc2ccccc12`, the IC50 is reported as > 80 µM (inactive). For `Cc1nc(Nc2nc(-c3ccccc3)cc(=O)[nH]2)nc2ccccc12`, the IC50 was 30.2 µM (inactive). `Cc1cc(Br)cc(NC(=O)c2cc(-c3ccncc3)nc3ccccc23)c1` was tested, and the IC50 was 64.8 µM (inactive). `O=C(Nc1ccc(Cl)cc1)c1cc(-c2ccncc2)nc2ccccc12` was tested, and the IC50 was 63.7 µM (inactive).
